US20110098269A1, “Substituted Pyridazinone Derivatives as Histamine-3 (H3) Receptor Ligands” (Cephalon, Inc., priority 2008, published 2011)
pKi: −log10 of the molar value. Counter-ions that a name gives are not always drawn.

Key:
[1] = biological target: T1, rat histamine H3 receptor (Rattus norvegicus, UniProt Q9QYN8); assay: Rat H3 radioligand binding ([3H]-N-alpha-methylhistamine, CHO-A3 cell membranes); details: Rat H3 binding constant, class symbols; read-out: rH3 Ki
T1 construct: encoding the entire 445-amino-acid rat histamine H3 receptor; expressed in transfected cells
T1 sequence (Q9QYN8 whole entry): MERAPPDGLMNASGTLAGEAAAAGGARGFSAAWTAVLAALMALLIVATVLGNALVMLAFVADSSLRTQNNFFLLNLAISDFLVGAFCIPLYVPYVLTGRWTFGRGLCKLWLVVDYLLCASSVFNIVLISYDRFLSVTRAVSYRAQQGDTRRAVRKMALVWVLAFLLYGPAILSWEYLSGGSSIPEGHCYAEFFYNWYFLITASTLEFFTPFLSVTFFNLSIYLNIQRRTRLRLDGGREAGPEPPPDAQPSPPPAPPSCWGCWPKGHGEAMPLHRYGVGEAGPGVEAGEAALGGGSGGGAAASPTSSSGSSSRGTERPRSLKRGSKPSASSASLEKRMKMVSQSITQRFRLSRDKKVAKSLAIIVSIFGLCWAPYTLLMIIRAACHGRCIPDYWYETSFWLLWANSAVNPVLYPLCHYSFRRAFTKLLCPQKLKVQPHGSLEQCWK
Excerpt: Cell line development and membrane preparation. The rat H3 receptor cDNA was PCR amplified from reverse-transcribed RNA pooled from rat thalamus, hypothalamus, striatum and prefrontal cortex with a sequence corresponding to by #338-1672 of Genbank file #NM_053506, encoding the entire 445-amino-acid rat histamine H3 receptor. This was engineered into the pIRES-neo3 mammalian expression vector, which was stably transfected into the CHO-A3 cell line (Euroscreen, Belgium), followed by clonal selection by limiting dilution. Cells were harvested and cell pellets were frozen (−80° C.). Cell pellets were resuspended in 5 mM Tris-HCl, pH 7.5 with 5 nM EDTA and a cocktail of protease inhibitors (Complete Protease Inhibitor Tablets, Roche Diagnostics). Cells were disrupted using a polytron cell homogenizer and the suspension was centrifuged at 1000×g for 10 minutes at 4° C. The pellet was discarded and the supernatant centrifuged at 40,000×g for 30 min at 4° C. This membrane pellet was washed in membrane buffer containing 50 mM Tris-HCl, pH 7.5 with 0.6 mM EDTA, 5 mM MgCl2 and protease inhibitors, recentrifuged as above and the final pellet resuspended in membrane buffer plus 250 mM sucrose and frozen at −80° C.
(§1) Radioligand Binding. Membranes were resuspended in 50 mM Tris HCl (pH 7.4), 5 mM MgCl2, 0.1% BSA. The membrane suspensions (10 μg protein per well) were incubated in a 96 well microtiter plate with [^3H]-N-alpha-methylhistamine (approximately 1 nM final concentration), test compounds at various concentrations (0.01 nM-30 μM) and scintillation proximity beads (Perkin Elmer, FlashBlueGPCR Scintillating Beads) in a final volume of 80 μl for 4 hours at room temperature, protected from light. Non-specific binding was determined in the presence of 10 μM clobenpropit. Radioligand bound to receptor, and therefore in proximity to the scintillation beads, was measured using a MicroBeta scintillation counter.

human H3 receptor = biological target: T2, human H3 receptor (Homo sapiens, UniProt Q9Y5N1); assay: Human H3 radioligand binding ([3H]-N-alpha-methylhistamine, CHO cell membranes); details: Human H3 binding constant, class symbols; read-out: hH3 Ki
T2 construct: expressed in transfected cells
T2 sequence (Q9Y5N1 whole entry): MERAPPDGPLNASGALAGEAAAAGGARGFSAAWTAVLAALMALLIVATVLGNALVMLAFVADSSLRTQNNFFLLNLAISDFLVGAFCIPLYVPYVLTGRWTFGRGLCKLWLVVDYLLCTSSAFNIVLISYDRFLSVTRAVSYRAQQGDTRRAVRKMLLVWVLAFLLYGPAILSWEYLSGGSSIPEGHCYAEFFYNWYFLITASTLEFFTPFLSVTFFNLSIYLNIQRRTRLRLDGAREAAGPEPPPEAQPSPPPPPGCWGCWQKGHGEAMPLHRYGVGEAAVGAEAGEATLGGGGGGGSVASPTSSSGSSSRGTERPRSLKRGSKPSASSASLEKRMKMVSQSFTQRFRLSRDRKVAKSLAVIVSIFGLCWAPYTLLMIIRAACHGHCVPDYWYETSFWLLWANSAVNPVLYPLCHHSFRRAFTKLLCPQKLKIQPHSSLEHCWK
Protocol: Methods: CHO cells stably expressing the human H3 receptor (GenBank: NM_007232) were harvested and cell pellets were frozen (−80° C.). Cell pellets were resuspended in 5 mM Tris-HCl, pH 7.5 with 5 nM EDTA and a cocktail of protease inhibitors (Complete Protease Inhibitor Tablets, Roche Diagnostics). Cells were disrupted using a polytron cell homogenizer and the suspension was centrifuged at 1000×g for 10 minutes at 4° C. The pellet was discarded and the supernatant centrifuged at 40,000×g for 30 min at 4° C. This membrane pellet was washed in membrane buffer containing 50 mM Tris-HCl, pH 7.5 with 0.6 mM EDTA, 5 mM MgCl2 and protease inhibitors, recentrifuged as above and the final pellet resuspended in membrane buffer plus 250 mM sucrose and frozen at −80° C.
as §1

Row | SMILES | melting point [°C] | pKi [1] | pKi (human H3 receptor)
1 | CC(C)N1CCc2ccc(-c3ccc(=O)n(C)n3)cc2CC1 (as salt: HCl) [Example 22, 6-(3-Isopropyl-2,3,4,5-tetrahydro-1H-benzo[d]azepin-7-yl)-2-methyl-2H-pyridazin-3-one. HCl] | 254 to 256 | – | –
2 | CC(C)N1N=C(c2ccc3c(c2)CCNCC3)CCC1=O [Example 3, 2-Isopropyl-6-(2,3,4,5-tetrahydro-1H-benzo[d]azepin-7-yl)-4,5-dihydro-2H-pyridazin-3-one] | – | 6.00 to 7.00 | 6.00 to 7.00
3 | CC(C)n1nc(-c2ccc3c(c2)CCNCC3)ccc1=O [Example 5, 2-Isopropyl-6-(2,3,4,5-tetrahydro-1H-benzo[d]azepin-7-yl)-2H-pyridazin-3-one] | – | 6.00 to 7.00 | 6.00 to 7.00
4 | CC(C)N1CCc2ccc(-c3ccc(=O)n(C)n3)cc2CC1 [Example 22, 6-(3-Isopropyl-2,3,4,5-tetrahydro-1H-benzo[d]azepin-7-yl)-2-methyl-2H-pyridazin-3-one. HCl] | – | 6.00 to 7.00 | 6.00 to 7.00
5 | Cn1nc(-c2ccc3c(c2)CCN(C2CCCC2)CC3)ccc1=O [Example 23, 6-(3-Cyclopentyl-2,3,4,5-tetrahydro-1H-benzo[d]azepin-7-yl)-2-methyl-2H-pyridazin-3-one. HCl] | – | 6.00 to 7.00 | > 7.00
6 | CS(=O)(=O)c1ccc(-n2nc(-c3ccc4c(c3)CCNCC4)ccc2=O)cc1 [Example 24, 2-(4-Methanesulfonyl-phenyl)-6-(2,3,4,5-tetrahydro-1H-benzo[d]azepin-7-yl)-2H-pyridazin-3-one] | – | – | < 6.00
7 | Cn1ncc(Oc2ccc3c(c2)CCN(C2CCC2)CC3)c(Cl)c1=O [Example 30, 4-Chloro-5-(3-cyclobutyl-2,3,4,5-tetrahydro-1H-benzo[d]azepin-7-yloxy)-2-methyl-2H-pyridazin-3-one] | – | > 7.00 | > 7.00
8 | Cn1ncc(Oc2ccc3c(c2)CCN(C2CCC2)CC3)c(Br)c1=O [Example 31, 4-Bromo-5-(3-cyclobutyl-2,3,4,5-tetrahydro-1H-benzo[d]azepin-7-yloxy)-2-methyl-2H-pyridazin-3-one] | – | > 7.00 | > 7.00
9 | Cn1ncc(Oc2ccc3c(c2)CCN(C2CCCC2)CC3)c(Br)c1=O [Example 32, 4-Bromo-5-(3-cyclopentyl-2,3,4,5-tetrahydro-1H-benzo[d]azepin-7-yloxy)-2-methyl-2H-pyridazin-3-one] | – | > 7.00 | > 7.00
10 | O=c1c(Cl)c(Oc2ccc3c(c2)CCN(C2CCC2)CC3)cnn1-c1ccccn1 [Example 33, 4-Chloro-5-(3-cyclobutyl-2,3,4,5-tetrahydro-1H-benzo[d]azepin-7-yloxy)-2-pyridin-2-yl-2H-pyridazin-3-one] | – | > 7.00 | > 7.00
11 | O=c1c(Cl)c(Oc2ccc3c(c2)CCN(C2CCC2)CC3)cnn1CC(F)(F)F [Example 34, 4-Chloro-5-(3-cyclobutyl-2,3,4,5-tetrahydro-1H-benzo[d]azepin-7-yloxy)-2-(2,2,2-trifluoro-ethyl)-2H-pyridazin-3-one] | – | 6.00 to 7.00 | > 7.00
12 | Cn1ncc(Oc2ccc3c(c2)CCN(C2CCC2)CC3)cc1=O [Example 35, 5-(3-Cyclobutyl-2,3,4,5-tetrahydro-1H-benzo[d]azepin-7-yloxy)-2-methyl-2H-pyridazin-3-one] | – | 6.00 to 7.00 | > 7.00
13 | Cn1ncc(Oc2ccc3c(c2)CCN(C2CCCC2)CC3)cc1=O [Example 36, 5-(3-Cyclopentyl-2,3,4,5-tetrahydro-1H-benzo[d]azepin-7-yloxy)-3-methyl-2H-pyridazin-3-one] | – | 6.00 to 7.00 | > 7.00
14 | COCn1ncc(Oc2ccc3c(c2)CCN(C2CCC2)CC3)cc1=O [Example 37, 5-(3-Cyclobutyl-2,3,4,5-tetrahydro-1H-benzo[d]azepin-7-yloxy)-2-methoxymethyl-2H-pyridazin-3-one] | – | 6.00 to 7.00 | > 7.00
15 | COCn1ncc(Oc2ccc3c(c2)CCN(C2CCCC2)CC3)cc1=O [Example 38, 5-(3-Cyclopentyl-2,3,4,5-tetrahydro-1H-benzo[d]azepin-7-yloxy)-2-methoxymethyl-2H-pyridazin-3-one] | – | 6.00 to 7.00 | > 7.00
16 | O=C1NN=C(c2ccc3c(c2)CCNCC3)C2CC12 (centres unmarked) [Example 39, 5-(2,3,4,5-Tetrahydro-1H-benzo[d]azepin-7-yl)-3,4-diaza-bicyclo[4.1.0]hept-4-en-2-one] | – | 6.00 to 7.00 | 6.00 to 7.00
17 | O=C1NN=C(c2ccc3c(c2)CCN(C2CCC2)CC3)C2CC12 (centres unmarked) [Example 40, 5-(3-Cyclobutyl-2,3,4,5-tetrahydro-1H-benzo[d]azepin-7-yl)-3,4-diaza-bicyclo[4.1.0]hept-4-en-2-one] | – | 6.00 to 7.00 | > 7.00
18 | O=C1NN=C(c2ccc3c(c2)CCNCC3)C2CCCC12 (centres unmarked) [Example 41, 4-(2,3,4,5-Tetrahydro-1H-benzo[d]azepin-7-yl)-2,4-a,5,6,7,7a-hexahydro-cyclopenta[d]pyridazin-1-one] | – | 6.00 to 7.00 | 6.00 to 7.00
19 | Cn1nc(-c2ccc(C(=O)N3CCC[C@H]3CN3CCCC3)cc2)ccc1=O [Example 45, 2-Methyl-6-[4-((S)-2-pyrrolidin-1-ylmethyl-pyrrolidine-1-carbonyl)-phenyl]-2H-pyridazin-3-one] | – | > 7.00 | > 7.00

Row | SMILES | melting point [°C] | pKi [1] | pKi (human H3 receptor)
20 | Cn1nc(-c2ccc(C(=O)N3CCN4CCC[C@H]4C3)cc2)ccc1=O [Example 48, 6-[4-((S)-Hexahydro-pyrrolo[1,2-a]pyrazine-2-carbonyl)-phenyl]-2-methyl-2H-pyridazin-3-one] | – | 6.00 to 7.00 | 6.00 to 7.00
21 | O=C(c1ccc(-c2ccc(=O)n(-c3ccc(F)cc3)n2)cc1)N1CCC[C@H]1CN1CCCC1 [Example 49, 2-(4-Fluoro-phenyl)-6-[4-((S)-2-pyrrolidin-1-ylmethyl-pyrrolidine-1-carbonyl)-phenyl]-2H-pyridazin-3-one] | – | 6.00 to 7.00 | > 7.00
22 | C[C@@H]1CCCN1CCc1ccc(-c2ccc(=O)n(-c3ccc(Cl)cc3)n2)cc1 [Example 52] | – | > 7.00 | > 7.00
23 | C[C@@H]1CCCN1CCc1ccc(-c2ccc(=O)n(Cc3ccccc3)n2)cc1 [Example 53] | – | > 7.00 | > 7.00
24 | CC(C)N(C)CCc1ccc(-c2ccc(=O)n(C)n2)cc1 [Example 54] | – | 6.00 to 7.00 | 6.00 to 7.00
25 | CN(CCc1ccc(-c2ccc(=O)n(C)n2)cc1)C1CCCCC1 [Example 55] | – | 6.00 to 7.00 | 6.00 to 7.00
26 | CCN(CC)CCc1ccc(-c2ccc(=O)n(C)n2)cc1 [Example 56] | – | 6.00 to 7.00 | 6.00 to 7.00
27 | CCNCCc1ccc(-c2ccc(=O)n(C)n2)cc1 [Example 57] | – | 6.00 to 7.00 | 6.00 to 7.00
28 | CC(=O)N1CCN(CCc2ccc(-c3ccc(=O)n(C)n3)cc2)CC1 [Example 58] | – | 6.00 to 7.00 | 6.00 to 7.00
29 | Cn1nc(-c2ccc(CCN3CCC3)cc2)ccc1=O [Example 60] | – | 6.00 to 7.00 | 6.00 to 7.00
30 | CN(CCc1ccc(-c2ccc(=O)n(C)n2)cc1)C1CCC1 [Example 61] | – | 6.00 to 7.00 | > 7.00
31 | CCN(CCc1ccc(-c2ccc(=O)n(C)n2)cc1)C1CCC1 [Example 62] | – | 6.00 to 7.00 | 6.00 to 7.00
32 | C[C@@H]1CCCN1CCc1ccc(-c2ccc(=O)n(C)n2)cc1 [Example 63] | – | > 7.00 | > 7.00
33 | Cn1nc(-c2ccc(CCN3CCCCC3)cc2)ccc1=O [Example 64] | – | 6.00 to 7.00 | 6.00 to 7.00
34 | O=c1ccc(-c2ccc(CCN3CCCCC3)cc2)nn1-c1ccccc1 [Example 65] | – | 6.00 to 7.00 | 6.00 to 7.00
35 | C[C@@H]1CCCN1CCc1ccc(-c2ccc(=O)n(-c3ccccc3)n2)cc1 [Example 66] | – | > 7.00 | > 7.00
36 | C[C@@H]1CCCN1CCc1ccc(-c2ccc(=O)n(-c3ccc(F)cc3)n2)cc1 [Example 67] | – | > 7.00 | > 7.00
37 | O=c1ccc(-c2ccc(CCN3CCOCC3)cc2)nn1-c1ccccc1 [Example 68] | – | < 6.00 | < 6.00
38 | C[C@@H]1CCCN1CCc1ccc(-c2ccc(=O)n(-c3ccccn3)n2)cc1 [Example 69] | – | 6.00 to 7.00 | > 7.00
